Measured values: article PMC11659749 (RSC Advances, 2024)
≈ marks a conversion by molar mass, not a printed value.

What was measured:
MRSA ATCC 43300 [1] = assay: Inhibition zone, MIC and MBC; type: cell-based, Staphylococcus aureus
K. pneumonia ATCC 13883 [2] = assay: Inhibition zone, MIC and MBC; type: cell-based, Klebsiella pneumoniae
E. coli ATCC 25922 [3] = assay: Inhibition zone, MIC and MBC; type: cell-based
C. albicans ATCC 10231 [4] = assay: Inhibition zone, MIC and MBC; type: cell-based; settings: Candida albicans, ATCC10231
P. aeruginosa ATCC 10145 [5] = assay: Inhibition zone, MIC and MBC; type: cell-based, Pseudomonas aeruginosa
MRSA ATCC 43300 [6] = assay: Biofilm formation inhibition, crystal violet assay; type: cell-based, Staphylococcus aureus; settings: at the corresponding MIC
K. pneumonia ATCC 13883 [7] = assay: Biofilm formation inhibition, crystal violet assay; type: cell-based, Klebsiella pneumoniae; settings: at the corresponding MIC
E. coli ATCC 25922 [8] = assay: Biofilm formation inhibition, crystal violet assay; type: cell-based; settings: at the corresponding MIC
C. albicans ATCC 10231 [9] = assay: Biofilm formation inhibition, crystal violet assay; type: cell-based, Candida albicans; settings: at the corresponding MIC
P. aeruginosa ATCC 10145 [10] = assay: Biofilm formation inhibition, crystal violet assay; type: cell-based, Pseudomonas aeruginosa; settings: at the corresponding MIC
[11] = test system: MRSA NRS384 (MRSA USA300); assay: MIC, broth microdilution; type: cell-based, methicillin-resistant Staphylococcus aureus; settings: Staphylococcus aureus
[12] = test system: Clostridium difficile ATCC BAA 1870; assay: MIC, broth microdilution; type: cell-based; settings: Clostridioides difficile, BAA1870, Clostridium difficile ATCC BAA 1870
[13] = test system: E. coli JW55031 (TolC mutant); assay: MIC, broth microdilution; type: cell-based; settings: Escherichia coli
[14] = test system: Enterococcus faecalis ATCC 51299; assay: MIC, broth microdilution; type: cell-based; settings: ATCC51299
[15] = test system: Neisseria gonorrhoeae 181; assay: MIC, broth microdilution; type: cell-based; settings: Neisseria gonorrhoeae, 181, Neisseria gonorrhoeae 181
[16] = test system: C. albicans SS5314 (wild type); assay: MIC, broth microdilution; type: cell-based; settings: Candida albicans
[17] = test system: Escherichia coli BW25113 (wild type); assay: MIC, broth microdilution; type: cell-based
[18] = test system: methicillin-resistant Staphylococcus aureus; assay: Time-kill assay; type: cell-based; settings: 4 × MIC, 24 hours incubation at 37 °C
human erythrocytes = assay: Hemolytic activity; type: cell-based; settings: up to 64 μg mL^−1, 37 °C for 1 h
[19] = Staphylococcus aureus, ATCC43300|MRSA
[20] = Klebsiella pneumoniae, ATCC13883
[21] = Pseudomonas aeruginosa, ATCC10145

Compound	MIC [11] [µg/mL]	MIC [12] [µg/mL]	MIC [13] [µg/mL]	MIC [14] [µg/mL]	MIC [15] [µg/mL]	MIC [16] [µg/mL]	MIC [17] [µg/mL]	other results
CO/N=C(\C(=O)N[C@@H]1C(=O)N2C(C(=O)O)=C(CSc3nc(=O)c(=O)[nH]n3C)CS[C@H]12)c1csc(N)n1 [Ceftriaxone]								IZD (MRSA ATCC 43300 [1]; MRSA ATCC 43300, mean ± SD): 30.34 ± 1.24 millimeters; MBC (MRSA ATCC 43300 [1]; [19]): 8 µg/mL (≈ 14.4 µM); MIC (MRSA ATCC 43300 [1]; [19]): 8 µg/mL (≈ 14.4 µM); IZD (K. pneumonia ATCC 13883 [2]; K. pneumonia ATCC 13883, mean ± SD): 34.34 ± 0.47 millimeters; MBC (K. pneumonia ATCC 13883 [2]; [20]): 8 µg/mL (≈ 14.4 µM); MIC (K. pneumonia ATCC 13883 [2]; [20]): 4 µg/mL (≈ 7.21 µM); IZD (E. coli ATCC 25922 [3]; E. coli ATCC 25922, mean ± SD): 36 ± 1.50 millimeters; MBC (E. coli ATCC 25922 [3]; Escherichia coli, ATCC25922): 32 µg/mL (≈ 57.7 µM); MIC (E. coli ATCC 25922 [3]; Escherichia coli, ATCC25922): 16 µg/mL (≈ 28.9 µM); MBC (C. albicans ATCC 10231 [4]): 31.2 µg/mL (≈ 56.3 µM); MIC (C. albicans ATCC 10231 [4]): 7.8 µg/mL (≈ 14.1 µM); IZD (P. aeruginosa ATCC 10145 [5]; P. aeruginosa ATCC 10145, mean ± SD): 35 ±1.85 millimeters; MBC (P. aeruginosa ATCC 10145 [5]; [21]): 16 µg/mL (≈ 28.9 µM); MIC (P. aeruginosa ATCC 10145 [5]; [21]): 8 µg/mL (≈ 14.4 µM); Inhibition of biofilm formation (%) (MRSA ATCC 43300 [6]): 73.262 ± 0.21%; Inhibition of biofilm formation (%) (K. pneumonia ATCC 13883 [7]): 61.23 ± 0.22%; Inhibition of biofilm formation (%) (E. coli ATCC 25922 [8]): 59.14 ± 0.16%; Inhibition of biofilm formation (%) (C. albicans ATCC 10231 [9]): 82.50 ± 0.14%; Inhibition of biofilm formation (%) (P. aeruginosa ATCC 10145 [10]): 74.39 ± 0.68%
CCCC#Cc1ccc(-n2nnc(C(C)=NNC(=N)N)c2C)cc1 [Compound 19, 2-(1-(5-Methyl-1-(4-(pent-1-yn-1-yl)phenyl)-1H-1,2,3-triazol-4-yl)ethylidene)hydrazine-1-carboximidamide]	32 (≈ 98.9 µM)	32 (≈ 98.9 µM)	32 (≈ 98.9 µM)	8 (≈ 24.7 µM)	64 (≈ 198 µM)	16 (≈ 49.5 µM)	> 64	
CC(=NNC(=N)N)c1nnn(-c2ccc(C#CCC(C)C)cc2)c1C [Compound 20, 2-(1-(5-Methyl-1-(4-(4-methylpent-1-yn-1-yl)phenyl)-1H-1,2,3-triazol-4-yl)ethylidene)hydrazine-1-carboximidamide]	≤ 4	8 (≈ 23.7 µM)	8 (≈ 23.7 µM)	8 (≈ 23.7 µM)	32 (≈ 94.8 µM)	8 (≈ 23.7 µM)	> 64	
CCCCC#Cc1ccc(-n2nnc(C(C)=NNC(=N)N)c2C)cc1 [Compound 21, 2-(1-(1-(4-(Hex-1-yn-1-yl)phenyl)-5-methyl-1H-1,2,3-triazol-4-yl)ethylidene)hydrazine-1-carboximidamide]	32 (≈ 94.8 µM)	16 (≈ 47.4 µM)	32 (≈ 94.8 µM)	32 (≈ 94.8 µM)	> 64	16 (≈ 47.4 µM)	> 64	
CCCCCCC#Cc1ccc(-n2nnc(C(C)=NNC(=N)N)c2C)cc1 [Compound 22, 2-(1-(1-(4-(Oct-1-yn-1-yl)phenyl)-5-methyl-1H-1,2,3-triazol-4-yl)ethylidene)hydrazine-1-carboximidamide]	64 (≈ 175 µM)	64 (≈ 175 µM)	64 (≈ 175 µM)	64 (≈ 175 µM)	> 64	64 (≈ 175 µM)	> 64	
CC(=NNC(=N)N)c1nnn(-c2ccc(C#CC3CC3)cc2)c1C [Compound 24, 2-(1-(1-(4-(Cyclopropylethynyl)phenyl)-5-methyl-1H-1,2,3-triazol-4-yl)ethylidene)hydrazine-1-carboximidamide]	64 (≈ 199 µM)	64 (≈ 199 µM)	64 (≈ 199 µM)	> 64	> 64	> 64	> 64	
CC(=NNC(=N)N)c1nnn(-c2ccc(C#CC3CCCC3)cc2)c1C [Compound 25, 2-(1-(1-(4-(Cyclopentylethynyl)phenyl)-5-methyl-1H-1,2,3-triazol-4-yl)ethylidene)hydrazine-1-carboximidamide]	64 (≈ 183 µM)	> 64	64 (≈ 183 µM)	> 64	64 (≈ 183 µM)	> 64	> 64	
CC(=NNC(=N)N)c1nnn(-c2ccc(C#CC3CCCCC3)cc2)c1C [Compound 26, 2-(1-(1-(4-(Cyclohexylethynyl)phenyl)-5-methyl-1H-1,2,3-triazol-4-yl)ethylidene)hydrazine-1-carboximidamide]	16 (≈ 44 µM)	16 (≈ 44 µM)	64 (≈ 176 µM)	8 (≈ 22 µM)	> 64	16 (≈ 44 µM)	> 64	
CC(=NNC(=N)N)c1nnn(-c2ccc(C#Cc3ccccc3)cc2)c1C [Compound 30, 2-(1-(5-Methyl-1-(4-(phenylethynyl)phenyl)-1H-1,2,3-triazol-4-yl)ethylidene)hydrazine-1-carboximidamide]	≤ 4	> 64	16 (≈ 44.8 µM)	16 (≈ 44.8 µM)	> 64	8 (≈ 22.4 µM)	> 64	time to complete bacterial eradication [18]: ≤ 24 h
CC(=NNC(=N)N)c1nnn(-c2ccc(C#Cc3ccc(C)cc3)cc2)c1C [Compound 31, 2-(1-(5-Methyl-1-(4-(p-tolylethynyl)phenyl)-1H-1,2,3-triazol-4-yl)ethylidene)hydrazine-1-carboximidamide]	8 (≈ 21.5 µM)	2 (≈ 5.38 µM)	4 (≈ 10.8 µM)	8 (≈ 21.5 µM)	> 64	2 (≈ 5.38 µM)	> 64	
OC(Cn1cncn1)(Cn1cncn1)c1ccc(F)cc1F [Fluconazole, reference compound]						0.5 (≈ 1.63 µM)		
CNC(C)C1CCC(N)C(OC2C(N)CC(N)C(OC3OCC(C)(O)C(NC)C3O)C2O)O1 (stereo not shown) [Gentamicin, reference compound]			0.25 (≈ 0.523 µM)					
CC(=O)NC[C@H]1CN(c2ccc(N3CCOCC3)c(F)c2)C(=O)O1 [Linezolid, reference compound]	1 (≈ 2.96 µM)	1 (≈ 2.96 µM)	8 (≈ 23.7 µM)	1 (≈ 2.96 µM)	64 (≈ 190 µM)	> 64		
CN(C)[C@@H]1C(O)=C(C(N)=O)C(=O)[C@@]2(O)C(O)=C3C(=O)c4c(O)cccc4[C@@](C)(O)[C@H]3C[C@@H]12 [Tetracycline, reference compound]					2 (≈ 4.5 µM)			
CN[C@H](CC(C)C)C(=O)N[C@H]1C(=O)N[C@@H](CC(N)=O)C(=O)N[C@H]2C(=O)N[C@H]3C(=O)N[C@H](C(=O)N[C@H](C(=O)O)c4cc(O)cc(O)c4-c4cc3ccc4O)[C@H](O)c3ccc(c(Cl)c3)Oc3cc2cc(c3O[C@@H]2O[C@H](CO)[C@@H](O)[C@H](O)[C@H]2O[C@H]2C[C@](C)(N)[C@H](O)[C@H](C)O2)Oc2ccc(cc2Cl)[C@H]1O [Vancomycin, reference compound]	1 (≈ 0.69 µM)	1 (≈ 0.69 µM)	16 (≈ 11 µM)	64 (≈ 44.2 µM)	> 64	> 64		time to complete bacterial eradication [18]: about 24 hours
O=C(O)c1cn(C2CC2)c2cc(N3CCNCC3)c(F)cc2c1=O [ciprofloxacin]								hemolytic activity (human erythrocytes): 15%
